Source: patent publication US12708630B2, “Combined therapy of 4′-thio-5-aza-2′-deoxycytidine and Venetoclax” (PINOTBIO, INC., priority 2021, dated 2026)

Legend:
Assay in all cases: drug activity profiling cytotoxicity
Type in all cases: cell-based
[1] = system: RPMI-7951; conditions: Homo sapiens; RPMI-7951 cell line, Skin (Melanoma); read-out: Aza-T-dCyd IC50
Method: (§1) To obtain a biomarker for Aza-T-dCyd, drug activity profiling analysis was performed to evaluate the cytotoxicity of 200 cell lines.
(§2) The drug responsiveness analysis of Aza-T-dCyd through drug activity profiling and genomic analysis of 200 cell lines confirmed the potent efficacy of Aza-T-dCyd in various solid tumors (Table 2).

[2] = system: TF-1; conditions: Homo sapiens; TF-1 cell line, Erythroleukemia; read-out: Aza-T-dCyd IC50
Method: as §1, §2

[3] = system: ARH-77; conditions: Homo sapiens; ARH-77 cell line, B-cell lymphoma; read-out: Aza-T-dCyd IC50
Method: as §1, §2

[4] = system: ZR-75-1; conditions: Homo sapiens; ZR-75-1 cell line, Breast; read-out: Aza-T-dCyd IC50
Method: as §1, §2

[5] = system: CFPAC-1; conditions: Homo sapiens; CFPAC-1 cell line, Pancreas; read-out: Aza-T-dCyd IC50
Method: as §1, §2

[6] = system: BM-1604; conditions: BM-1604 cell line, Prostate; read-out: Aza-T-dCyd IC50
Method: as §1, §2

[7] = system: A388; conditions: A388 cell line, Skin (Head and Neck); read-out: Aza-T-dCyd IC50
Method: as §1, §2

[8] = system: HuCCT1; conditions: Homo sapiens, HuCCT-1; HuCCT1 cell line, Liver; read-out: Aza-T-dCyd IC50
Method: as §1, §2

[9] = system: SW900; conditions: Homo sapiens; SW900 cell line, Lung (NSCLC); read-out: Aza-T-dCyd IC50
Method: as §1, §2

[10] = system: 639-V; conditions: Homo sapiens; 639-V cell line, Bladder; read-out: Aza-T-dCyd IC50
Method: as §1, §2

[11] = system: BHT-101; conditions: Homo sapiens; BHT-101 cell line, Endocrine (Thyroid); read-out: Aza-T-dCyd IC50
Method: as §1, §2

[12] = system: SW1417; conditions: Homo sapiens; SW1417 cell line, Colon; read-out: Aza-T-dCyd IC50
Method: as §1, §2

[13] = system: DMS114; conditions: Homo sapiens, DMS-114; DMS114 cell line, Lung (SCLC); read-out: Aza-T-dCyd IC50
Method: as §1, §2

[14] = system: WM-266-4; conditions: Homo sapiens; WM-266-4 cell line, Skin (Melanoma); read-out: Aza-T-dCyd IC50
Method: as §1, §2

[15] = system: NCIH446; conditions: Homo sapiens, NCI-H446; NCIH446 cell line, Lung (SCLC); read-out: Aza-T-dCyd IC50
Method: as §1, §2

[16] = system: HT1376; conditions: Homo sapiens, HT-1376; HT1376 cell line, Bladder; read-out: Aza-T-dCyd IC50
Method: as §1, §2

[17] = system: CA46; conditions: Homo sapiens; CA46 cell line, Burkitt's lymphoma; read-out: Aza-T-dCyd IC50
Method: as §1, §2

[18] = system: L-428; conditions: Homo sapiens; L-428 cell line, Hodgkin's lymphoma; read-out: Aza-T-dCyd IC50
Method: as §1, §2

[19] = system: LS411N; conditions: Homo sapiens, LS-411N; LS411N cell line, Colon; read-out: Aza-T-dCyd IC50
Method: as §1, §2

[20] = system: SW620; conditions: Homo sapiens, SW-620; SW620 cell line, Colon; read-out: Aza-T-dCyd IC50
Method: as §1, §2

[21] = system: 5637; conditions: 5637 cell line, Bladder; read-out: Aza-T-dCyd IC50
Method: as §1, §2

[22] = system: OE19; conditions: Homo sapiens; OE19 cell line, Head and Neck; read-out: Aza-T-dCyd IC50
Method: as §1, §2

[23] = system: SW403; conditions: Homo sapiens, SW-403; SW403 cell line, Colon; read-out: Aza-T-dCyd IC50
Method: as §1, §2

[24] = system: SK-N-AS; conditions: Homo sapiens; SK-N-AS cell line, CNS (Neuroblastoma); read-out: Aza-T-dCyd IC50
Method: as §1, §2

[25] = system: SKO-007; conditions: SKO-007 cell line, B-cell myeloma; read-out: Aza-T-dCyd IC50
Method: as §1, §2

[26] = system: HL-60; conditions: Homo sapiens; HL-60 cell line, AML; read-out: Aza-T-dCyd IC50
Method: as §1, §2

[27] = system: ChaGoK1; conditions: Homo sapiens, ChaGo-K-1; ChaGoK1 cell line, Lung (NSCLC); read-out: Aza-T-dCyd IC50
Method: as §1, §2

[28] = system: Hs 766T; conditions: Hs766T; Hs 766T cell line, Pancreas; read-out: Aza-T-dCyd IC50
Method: as §1, §2

[29] = system: DBTRG-05MG; conditions: Homo sapiens; DBTRG-05MG cell line, CNS (Glioma); read-out: Aza-T-dCyd IC50
Method: as §1, §2

[30] = system: SW1463; conditions: Homo sapiens; SW1463 cell line, Colon; read-out: Aza-T-dCyd IC50
Method: as §1, §2

With `Nc1ncn([C@H]2CC(O)[C@@H](CO)S2)c(=O)n1` (stereo partly drawn) [Aza-T-dCyd, 4′-thio-5-aza-2′-deoxycytidine] the IC50 [1] was 527 nM, the IC50 [2] was 733 nM and the IC50 [3] was 413 nM. It also gave an IC50 [4] of over 10 µM, an IC50 [5] of 1750 nM and an IC50 [6] of 4.41 µM. It also gave an IC50 [7] of 190 nM, an IC50 [8] of 105 nM and an IC50 [9] of 1980 nM. The IC50 [10] was 1570 nM, the IC50 [11] was 235 nM and the IC50 [12] was over 10 µM. The IC50 [13] was 2200 nM, the IC50 [14] was 429 nM and the IC50 [15] was 3.04 µM. For the same molecule, the IC50 [16] was 3.28 µM, the IC50 [17] was 25.5 nM and the IC50 [18] was 365 nM. It also gave an IC50 [19] of 265 nM, an IC50 [20] of 234 nM and an IC50 [21] of 296 nM. The IC50 [22] was over 10 µM, the IC50 [23] was 619 nM and the IC50 [24] was 1170 nM. The IC50 [25] was 4.29 µM, the IC50 [26] was 514 nM and the IC50 [27] was 3.41 µM. For the same molecule, the IC50 [28] was 9.4 µM, the IC50 [29] was over 10 µM and the IC50 [30] was 303 nM.
